Measurements published in patent US12419862B2, “Use of a cathepsin s inhibitor against the formation of anti-drug antibodies” (Hoffmann-La Roche Inc., priority 2018, dated 2025).

Key:
[1] = test system: high affinity NP-specific IgG response; experiment: T-cell dependent NP-specific IgG response after NP-OVAL immunization, ELISA (Example 2); format: in vivo, mice; settings: 40 mg/kg/day via food admix from two days before NP-OVAL immunization until day 35, vs vehicle
Protocol: 6 to 8-weeks-old female mice C57BL/6-Tg (hIgG1,k,l) were purchased from Charles River Laboratories (Germany) and housed at the animal facilities in room with air-conditioned under a 12 hours light/dark cycle in macrolon boxes with enriched environment and free access to water and food. The mice were injected at day −2 subcutaneously with 20 μg/mouse of NP-OVAL (4-Hydroxy-3-nitrophenylacetyl hapten conjugated to ovalbumin, Biosearch Technologies, USA, Batch No 060368) with adjuvant (Alhydrogel, InvivoGen #vac-alu-250) at the both flanks or without adjuvant at day 28. The dosage of (2S,4R)-4-[4-(1-methyl-1H-pyrazol-4-yl)-2-trifluoromethyl-benzenesulfonyl]-1-(1-trifluoromethyl-cyclopropanecarbonyl)-pyrrolidine-2-carboxylic acid (1-cyano-cyclopropyl)-amide consumption was 0 (vehicle), 1, 10, 40 mg/kg/day. […]
(§1) Nunc Maxisorp flat-bottom 96 well ELISA plates were coated with 100 μl per well of NP(4)-BSA (Biosearch Technologies N-5050L; 1 mg/mL) at 1 μg/mL in NaHCO3100 mM buffer and incubated overnight at +4° C. […] 100 μl of substrate P-nitrophenyl phosphate ready to use (Life Technologies, Cat no 002212) were added per well and after 10 min incubation at room temperature, the OD at 405 nm was read as an end-point measurement with a Versamax ELISA reader.

[2] = test system: IgG response to murine hemi-surrogate CEA-TCB; experiment: ADA against murine hemi-surrogate CEA-TCB in hIgG1 Tg mice, ELISA (Example 8); format: in vivo, C57BL/6-Tg (hIgG1,k,l) mice; settings: 40 mg/kg/day via food admix from one week before first immunization until day 28, vs vehicle
Protocol: 11-15-week-old mice C57BL/6-Tg (hIgG1,k,l) mixed gender (n=20) were purchased from Taconic (Denmark) and housed at the animal facilities in room with air-conditioned under a 12 hours light/dark cycle in macrolon boxes with enriched environment and free access to water and food. 7×10 μg of CEA-TCB (P1AE3536, huCEA binder CH1A1A/mouse CD3 binder 2C11) were injected at day 0, 4, 7, 11, 14, 18 and 21 subcutaneously in the right flank or the left flank alternatively. The dosage of (2S,4R)-4-[4-(1-methyl-1H-pyrazol-4-yl)-2-trifluoromethyl-benzenesulfonyl]-1-(1-trifluoromethyl-cyclopropanecarbonyl)-pyrrolidine-2-carboxylic acid (1-cyano-cyclopropyl)-amide consumption was 40 mg/kg/day. […]
as §1, with “of huCEA IgG PGLALA (P1AD9477) or hu anti mouse CD3 (P1AE2779-001-01) respectively” for “of NP(4)-BSA (Biosearch Technologies N-5050L; 1 mg/mL)”, “at 5” for “at 1”, “buffer” for “buffer and incubated”

`Cn1cc(-c2ccc(S(=O)(=O)[C@@H]3C[C@@H](C(=O)NC4(C#N)CC4)N(C(=O)C4(C(F)(F)F)CC4)C3)c(C(F)(F)F)c2)cn1` [cathepsin S inhibitor, (2S,4R)-4-[4-(1-methyl-1H-pyrazol-4-yl)-2-trifluoromethyl-benzenesulfonyl]-1-(1-trifluoromethyl-cyclopropanecarbonyl)-pyrrolidine-2-carboxylic acid (1-cyano-cyclopropyl)-amide] was tested, and the “NP-specific IgG levels (T-cell dependent IgG response against NP)” value [1] was “significantly reduces NP-specific IgG levels”, the “NP-specific IgG levels (T-cell dependent IgG response against NP)” value ([1]; listed as cathepsin S antagonist) was “effectively abrogating the T-cell dependent IgG response against NP” and the “ADA specific to CD3 binder (2C11) of CEA-TCB” value [2] was “significantly reduced ADA to CD3 binder”. The “CEA-specific ADA to CEA-TCB” value [2] was “reduction of CEA-specific ADA was not significant”.
